US4160829A, “Antibacterial 1,2,4-oxadiazolylacetamido cephalosporins” (Gist-Brocades N.V., priority 1972, dated 1979)
Like-named read-outs stand apart in the source and are kept apart here.

Tests used:
[1] = stability in refluxing slightly moist diethyl ether (thin-layer chromatography); type: physicochemical; settings: refluxed 24 hours, read-out: destruction to 5-methyl-1,2,4-oxadiazol-3-yl-acetic acid
Method: Stability of 1,2,4-oxadiazol-3,5-diyl-bisacetic acid: A small sample was dissolved in slightly moist diethyl ether and the solution was refluxed for 24 hours.

Bac.Subt.ATCC 6633 = assay: agar serial dilution test; type: cell-based, Bacillus subtilis; settings: Bacillus subtilis, ATCC6633, 24 h, agar serial dilution, 24 hours, 37° C.; read-out: minimal inhibitory concentration (MIC)
Staph.aureus A 321 = assay: agar serial dilution test; type: cell-based, Staphylococcus aureus; settings: Staphylococcus aureus, A321, 24 h, agar serial dilution, 24 hours, 37° C.; read-out: minimal inhibitory concentration (MIC)
Staph.aureus A 2000 [2] = assay: agar serial dilution test; type: cell-based, Staphylococcus aureus; settings: Staphylococcus aureus, A2000, 24 h, agar serial dilution, 24 hours, 37° C.; read-out: minimal inhibitory concentration (MIC)
Staph.aureus A 2001 [3] = assay: agar serial dilution test; type: cell-based, Staphylococcus aureus; settings: Staphylococcus aureus, A2001, 24 h, agar serial dilution, 24 hours, 37° C.; read-out: minimal inhibitory concentration (MIC)
Strep. faec. L 80 = assay: agar serial dilution test; type: cell-based, Streptococcus faecalis; settings: Enterococcus faecalis; agar serial dilution, 24 hours, 37° C.; read-out: minimal inhibitory concentration (MIC)
Dipl.pneum. L 54 = assay: agar serial dilution test; type: cell-based, Diplococcus pneumoniae; settings: Streptococcus pneumoniae; agar serial dilution, 24 hours, 37° C.; read-out: minimal inhibitory concentration (MIC)
Past.multo. A 723 = assay: agar serial dilution test; type: cell-based, Pasteurella multocida; settings: Pasteurella multocida; agar serial dilution, 24 hours, 37° C.; read-out: minimal inhibitory concentration (MIC)
Kleb.pneum. A 809 = assay: agar serial dilution test; type: cell-based, Klebsiella pneumoniae; settings: Klebsiella pneumoniae; agar serial dilution, 24 hours, 37° C.; read-out: minimal inhibitory concentration (MIC)
Salm.dubl. P 43 = assay: agar serial dilution test; type: cell-based, Salmonella dublin; settings: Salmonella enterica; agar serial dilution, 24 hours, 37° C.; read-out: minimal inhibitory concentration (MIC)
Esch.coli U 20 = assay: agar serial dilution test; type: cell-based, Escherichia coli; settings: Escherichia coli, U20; agar serial dilution, 24 hours, 37° C.; read-out: minimal inhibitory concentration (MIC)
Pseud.aerug. H 10 = assay: agar serial dilution test; type: cell-based; settings: agar serial dilution, 24 hours, 37° C.; read-out: minimal inhibitory concentration (MIC)
Pseud.aerug. 2396 = assay: agar serial dilution test; type: cell-based; settings: agar serial dilution, 24 hours, 37° C.; read-out: minimal inhibitory concentration (MIC)
[4] = system: Pseud.aerug. Wyeth A 1058; assay: agar serial dilution test; type: cell-based; settings: agar serial dilution, 24 hours, 37° C.; read-out: minimal inhibitory concentration (MIC)
Prot.rettg. A 821 = assay: agar serial dilution test; type: cell-based, Proteus rettgeri; settings: Providencia rettgeri, 24 h, agar serial dilution, 24 hours, 37° C.; read-out: minimal inhibitory concentration (MIC)
Prot.mirab. H 3 = assay: agar serial dilution test; type: cell-based, Proteus mirabilis; settings: Proteus mirabilis; agar serial dilution, 24 hours, 37° C.; read-out: minimal inhibitory concentration (MIC)
Prot.mirab. L 93 = assay: agar serial dilution test; type: cell-based, Proteus mirabilis; settings: Proteus mirabilis; agar serial dilution, 24 hours, 37° C.; read-out: minimal inhibitory concentration (MIC)
Prot.mirab. A 1200 [5] = assay: agar serial dilution test; type: cell-based, Proteus mirabilis; settings: Proteus mirabilis, 24 h, agar serial dilution, 24 hours, 37° C.; read-out: minimal inhibitory concentration (MIC)
Prot.morg. 2241 = assay: agar serial dilution test; type: cell-based; settings: 24 h, agar serial dilution, 24 hours, 37° C.; read-out: minimal inhibitory concentration (MIC)
Strep.haem A 1088 = assay: agar serial dilution test; type: cell-based, Streptococcus haemolyticus; settings: Streptococcus, A1088, 24 hours, 37° C., read-out: minimal inhibitory concentration (MIC)
Bruc. Suis A 2126 = assay: agar serial dilution test; type: cell-based; settings: Brucella suis, 24 h, read-out: minimal inhibitory concentration (MIC)
Salm.typh. R 172 = assay: agar serial dilution test; type: cell-based; settings: 24 h, read-out: minimal inhibitory concentration (MIC)
Actinob.equ. T 3 = assay: agar serial dilution test; type: cell-based; settings: 24 hours, 37° C., read-out: minimal inhibitory concentration (MIC)
Staph.aureus A 355 [6] = assay: micro serial dilution test; type: cell-based, Staphylococcus aureus; settings: Staphylococcus aureus, A355; micro serial dilution (in brackets), about 18 hours, 30° C. or 37° C.; penicillinase-producing strain; read-out: minimal inhibitory concentration (MIC)
Staph.aureus A 2000 [7] = assay: micro serial dilution test; type: cell-based, Staphylococcus aureus; settings: Staphylococcus aureus, A2000, 18 h, micro serial dilution (in brackets), about 18 hours, 30° C. or 37° C.; read-out: minimal inhibitory concentration (MIC)
Staph.aureus A 2001 [8] = assay: micro serial dilution test; type: cell-based, Staphylococcus aureus; settings: Staphylococcus aureus, A2001, 18 h, micro serial dilution (in brackets), about 18 hours, 30° C. or 37° C.; read-out: minimal inhibitory concentration (MIC)
Prot.mirab. A 1200 [9] = assay: micro serial dilution test; type: cell-based; settings: Proteus mirabilis; micro serial dilution (in brackets), about 18 hours, 30° C. or 37° C.; read-out: minimal inhibitory concentration (MIC)
Haem.Suis A 2096 = assay: micro serial dilution test; type: cell-based; settings: micro serial dilution (in brackets), about 18 hours, 30° C. or 37° C.; read-out: minimal inhibitory concentration (MIC)
Sarc. lutea ATCC 9341 = assay: micro serial dilution test; type: cell-based; settings: Micrococcus luteus, ATCC9341; micro serial dilution (in brackets), about 18 hours, 30° C. or 37° C.; read-out: minimal inhibitory concentration (MIC)
[10] = system: Klebsiella pneumoniae A 265; assay: protection test; type: in vivo; settings: i.p.
Proteus mirabilis A 1200 = assay: protection test; type: in vivo; settings: s.c.; for ED50: protection test
Proteus rettgeri A 821 = assay: protection test; type: in vivo; settings: s.c.
Staph.aureus A 355 [11] = assay: agar serial dilution test; settings: Staphylococcus aureus, A355, 24 h, read-out: minimal inhibitory concentration (MIC), agar serial dilution, 24 hours, 37° C.; penicillinase-producing strain

Q: For `O=C(O)Cc1noc(CC(=O)O)n1` [Example 39, 1,2,4-oxadiazole-3,5-diyl-bisacetic acid], which degraded at 24 h [1] is on record?
A: Its degraded at 24 h is under 5%.

Q: With `Cn1nnnc1SCC1=C(C(=O)O)N2C(=O)[C@@H](NC(=O)Cc3nc(CC(=O)O)no3)[C@H]2SC1` [Compound F, disodium 7-[(3-carboxymethyl-1,2,4-oxadiazol-5-yl)-acetamido]-3[1-methyl-tetrazol-5-yl-mercaptomethyl] 3-cephem-4-carboxylate] as the compound, how does the MIC (Bac.Subt.ATCC 6633) read?
A: Its MIC is 1.5 µg/mL.

Q: And the MIC (Staph.aureus A 321)?
A: The MIC was 3 µg/mL.

Q: What about the MIC (Staph.aureus A 2000 [2]) of the same compound?
A: The MIC was 6 µg/mL.

Q: What about the MIC (Staph.aureus A 2001 [3]) of the same compound?
A: The MIC was 6 µg/mL.

Q: What about the MIC (Strep. faec. L 80) of the same compound?
A: Its MIC is over 100 µg/mL.

Q: What about the MIC (Dipl.pneum. L 54) of the same compound?
A: Its MIC is 1 µg/mL.

Q: And the MIC (Past.multo. A 723)?
A: Its MIC is 1 µg/mL.

Q: And the MIC (Kleb.pneum. A 809)?
A: Its MIC is 0.5 µg/mL.

Q: And the MIC (Salm.dubl. P 43)?
A: The MIC was 0.5 µg/mL.

Q: What about the MIC (Esch.coli U 20) of the same compound?
A: Its MIC is 0.75 µg/mL.

Q: What about the MIC (Pseud.aerug. H 10) of the same compound?
A: Its MIC is 100 µg/mL.

Q: What about the MIC (Pseud.aerug. 2396) of the same compound?
A: Its MIC is 100 µg/mL.

Q: What about the MIC [4] of the same compound?
A: Its MIC is 100 µg/mL.

Q: What about the MIC (Prot.rettg. A 821) of the same compound?
A: The MIC was 0.25 µg/mL.

Q: And the MIC (Prot.mirab. H 3)?
A: Its MIC is 1.5 µg/mL.

Q: What about the MIC (Prot.mirab. L 93) of the same compound?
A: Its MIC is 1.5 µg/mL.

Q: What about the MIC (Prot.mirab. A 1200 [5]) of the same compound?
A: The MIC was 3 µg/mL.

Q: And the MIC (Prot.morg. 2241)?
A: Its MIC is 25 µg/mL.

Q: What about the MIC (Strep.haem A 1088) of the same compound?
A: Its MIC is 3 µg/mL.

Q: What about the MIC (Bruc. Suis A 2126) of the same compound?
A: The MIC was 1 µg/mL.

Q: And the MIC (Salm.typh. R 172)?
A: The MIC was 0.75 µg/mL.

Q: What about the MIC (Actinob.equ. T 3) of the same compound?
A: Its MIC is 0.5 µg/mL.

Q: And the MIC (Staph.aureus A 355 [6])?
A: Its MIC is 6 µg/mL.

Q: What about the MIC (Staph.aureus A 2000 [7]) of the same compound?
A: The MIC was 4 µg/mL.

Q: And the MIC (Staph.aureus A 2001 [8])?
A: Its MIC is 3.7 µg/mL.

Q: What about the MIC (Prot.mirab. A 1200 [9]) of the same compound?
A: The MIC was 1.2 µg/mL.

Q: What about the MIC (Haem.Suis A 2096) of the same compound?
A: Its MIC is 0.23 µg/mL.

Q: What about the MIC (Sarc. lutea ATCC 9341) of the same compound?
A: The MIC was 3.7 µg/mL.

Q: What about the ED50 ([10]; Klebsiella pneumoniae, A265, ip, protection test) of the same compound?
A: Its ED50 is 16 mg/kg.

Q: What about the Potency ratio ([10]; reference Cefalotin) of the same compound?
A: Its Potency ratio is 5,7.

Q: And the ED50 (Proteus mirabilis A 1200; Proteus mirabilis, A1200, sc, read-out: ED50)?
A: The ED50 was 2.2 mg/kg.

Q: And the ED50 (Proteus mirabilis A 1200)?
A: The ED50 was 1,35 mg/kg.

Q: What about the Potency ratio (Proteus mirabilis A 1200; reference Cefalotin) of the same compound?
A: Its Potency ratio is 6,9.

Q: And the Potency ratio (Proteus mirabilis A 1200; reference Cefazolin)?
A: The Potency ratio was 6,5.

Q: And the ED50 (Proteus rettgeri A 821; Providencia rettgeri, A821, sc, protection test)?
A: Its ED50 is 0.023 mg/kg.

Q: And the Potency ratio (Proteus rettgeri A 821; reference Cefalotin)?
A: The Potency ratio was over 5.

Q: What about the MIC (Staph.aureus A 355 [11]) of the same compound?
A: Its MIC is 6 µg/mL.
